In PubChem BioAssay AID248 (DTP/NCI, 2004):
Values joined by “and” are separate entries in the source; they are usually repeats but may differ in a detail not shown here. Equal values may be shown once. Toxic doses and inconclusive results are not listed. No stated cut-off is given here; in the data, active means T/C of 150% or more; inactive means T/C below 125%.

Test system: L1210 leukemia ip in BDF1 mice, survival T/C
Test: NCI In Vivo Anticancer Drug Screen. Data for tumor model L1210 Leukemia (intraperitoneal) in B6D2F1 (BDF1) mice
Conditions: higher = longer survival
Outline: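 Value reflects the ratio of survival in compound-treated mice to survival in vehicle-treated controls, with both groups carrying the same transplanted tumor.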

[1] = endpoint: mean survival time, dose: 100.0 mg/kg/injection, schedule: Q01DX009 (ip), vehicle: saline with Tween-80
[2] = endpoint: mean survival time, dose: 200.0 mg/kg/injection, schedule: Q01DX009 (ip), vehicle: saline with Tween-80
[3] = endpoint: mean survival time, dose: 12.5 mg/kg/injection, schedule: Q04DX003 (ip), vehicle: saline
[4] = endpoint: mean survival time, dose: 25.0 mg/kg/injection, schedule: Q04DX003 (ip), vehicle: saline
[5] = endpoint: mean survival time, dose: 100.0 mg/kg/injection, schedule: Q01DX001 (ip), vehicle: saline
[6] = endpoint: mean survival time, dose: 200.0 mg/kg/injection, schedule: Q01DX001 (ip), vehicle: saline
[7] = endpoint: mean survival time, dose: 400.0 mg/kg/injection, schedule: Q01DX009 (ip), vehicle: saline with Tween-80
[8] = endpoint: mean survival time, dose: 100.0 mg/kg/injection, schedule: Q04DX003 (ip), vehicle: saline with Tween-80
[9] = endpoint: mean survival time, dose: 200.0 mg/kg/injection, schedule: Q04DX003 (ip), vehicle: saline with Tween-80
[10] = endpoint: mean survival time, dose: 400.0 mg/kg/injection, schedule: Q04DX003 (ip), vehicle: saline with Tween-80

Measured: T/C

N#CC1(NC(Cc2ccccc2)c2ccccc2)CCCC1 (stereo not drawn)
inactive: endpoint: mean survival time, dose: 100.0 mg/kg/injection, schedule: Q01DX009 (ip), vehicle: Klucel (hydroxypropylcellulose) (HPC) 114 % of control | endpoint: mean survival time, dose: 200.0 mg/kg/injection, schedule: Q01DX009 (ip), vehicle: Klucel (hydroxypropylcellulose) (HPC) 95 % of control | endpoint: mean survival time, dose: 400.0 mg/kg/injection, schedule: Q01DX009 (ip), vehicle: Klucel (hydroxypropylcellulose) (HPC) 92 % of control

CC/C(C)=C\CC/C(C)=C\COc1ccccc1[N+](=O)[O-]
inactive: endpoint: mean survival time, dose: 100.0 mg/kg/injection, schedule: Q01DX009 (ip), vehicle: carboxymethylcellulose (CMC) 100 % of control | endpoint: mean survival time, dose: 200.0 mg/kg/injection, schedule: Q01DX009 (ip), vehicle: carboxymethylcellulose (CMC) 100 % of control | endpoint: mean survival time, dose: 400.0 mg/kg/injection, schedule: Q01DX009 (ip), vehicle: carboxymethylcellulose (CMC) 98 % of control

O=C1CCCN1C1=CC2=C(CCc3ccccc32)S(=O)(=O)O1
inactive: endpoint: mean survival time, dose: 100.0 mg/kg/injection, schedule: Q01DX009 (ip), vehicle: saline 90 % of control | endpoint: mean survival time, dose: 100.0 mg/kg/injection, schedule: Q04DX003 (ip), vehicle: saline 100 % of control | endpoint: mean survival time, dose: 200.0 mg/kg/injection, schedule: Q01DX009 (ip), vehicle: saline 90 % of control | endpoint: mean survival time, dose: 200.0 mg/kg/injection, schedule: Q04DX003 (ip), vehicle: saline 94 % of control | endpoint: mean survival time, dose: 400.0 mg/kg/injection, schedule: Q01DX009 (ip), vehicle: saline 95 % of control | endpoint: mean survival time, dose: 400.0 mg/kg/injection, schedule: Q04DX003 (ip), vehicle: saline 108 % of control

O=C(Nc1ccc(Nc2ccccc2)cc1)Nc1cccc(F)c1
inactive: [1] 88 % of control | [2] 96 % of control

Cc1cc(=O)[nH]c(NC(C)C(=O)O)n1 (stereo not drawn)
inactive: [3] 101 % of control | [4] 101 % of control | endpoint: mean survival time, dose: 50.0 mg/kg/injection, schedule: Q04DX003 (ip), vehicle: saline 101 % of control

CCOc1nc(OCC)c2[nH]cnc2n1
inactive: [5] 101 % of control | [6] 96 % of control | endpoint: mean survival time, dose: 400.0 mg/kg/injection, schedule: Q01DX001 (ip), vehicle: saline 102 % of control

CCCCCCCCCCCCOCN1C(=O)N(COCCCCCCCCCCCC)C(=O)C(CC)(c2ccccc2)C1=O
inactive: [1] 97 % of control | [2] 94 % of control | [7] 94 % of control

COc1ccc(C(=O)/C=C/c2ccc3c(c2)OCO3)cc1
inactive: endpoint: mean survival time, dose: 100.0 mg/kg/injection, schedule: Q04DX003 (ip), vehicle: Klucel (hydroxypropylcellulose) (HPC) 100 % of control | endpoint: mean survival time, dose: 200.0 mg/kg/injection, schedule: Q04DX003 (ip), vehicle: Klucel (hydroxypropylcellulose) (HPC) 94 % of control | endpoint: mean survival time, dose: 400.0 mg/kg/injection, schedule: Q04DX003 (ip), vehicle: Klucel (hydroxypropylcellulose) (HPC) 93 % of control

C[N+]1(C)CCOCC1
inactive: endpoint: mean survival time, dose: 10.0 mg/kg/injection, schedule: Q01DX001 (ip), vehicle: saline 99 % of control | endpoint: mean survival time, dose: 20.0 mg/kg/injection, schedule: Q01DX001 (ip), vehicle: saline 100 % of control | endpoint: mean survival time, dose: 40.0 mg/kg/injection, schedule: Q01DX001 (ip), vehicle: saline 96 % of control

ClCCOC(OCCCl)OCCCl
inactive: [1] 105 % of control | [8] 103 % of control | [2] 87 % of control | [9] 104 % of control | [10] 95 % of control

NC(=O)C(N)Cc1ccc(OCc2ccccc2)c(OCc2ccccc2)c1 (stereo not drawn)
inactive: endpoint: mean survival time, dose: 100.0 mg/kg/injection, schedule: Q01DX001 (ip), vehicle: saline with Tween-80 92 % of control | [1] 101 % of control | endpoint: mean survival time, dose: 200.0 mg/kg/injection, schedule: Q01DX001 (ip), vehicle: saline with Tween-80 94 % of control | [2] 95 % of control | endpoint: mean survival time, dose: 400.0 mg/kg/injection, schedule: Q01DX001 (ip), vehicle: saline with Tween-80 86 % of control

CCCCCCCCC/C(=N\Nc1ccc([N+](=O)[O-])cc1[N+](=O)[O-])c1ccccc1
inactive: endpoint: mean survival time, dose: 100.0 mg/kg/injection, schedule: Q04DX003 (ip), vehicle: saline sonified 108 % of control | endpoint: mean survival time, dose: 200.0 mg/kg/injection, schedule: Q04DX003 (ip), vehicle: saline sonified 98 % of control | endpoint: mean survival time, dose: 400.0 mg/kg/injection, schedule: Q04DX003 (ip), vehicle: saline sonified 108 % of control

O=C1Cc2ccccc2CNN1
inactive: endpoint: mean survival time, dose: 100.0 mg/kg/injection, schedule: Q01DX001 (ip), vehicle: other 90 % of control | endpoint: mean survival time, dose: 400.0 mg/kg/injection, schedule: Q01DX001 (ip), vehicle: other 102 % of control

CC1COCCN1 (stereo not drawn)
inactive: endpoint: mean survival time, dose: 50.0 mg/kg/injection, schedule: Q01DX001 (ip), vehicle: saline 91 % of control | [5] 97 % of control | [6] 100 % of control

CCCCCC[C@@H](O)C/C=C\CCCCCCCC(=O)OCCO
inactive: endpoint: median survival time, dose: 25.0 mg/kg/injection, schedule: Q01DX009 (ip), vehicle: saline 101 % of control | endpoint: median survival time, dose: 50.0 mg/kg/injection, schedule: Q01DX009 (ip), vehicle: saline 100 % of control | endpoint: median survival time, dose: 100.0 mg/kg/injection, schedule: Q01DX009 (ip), vehicle: saline 120 % of control | endpoint: median survival time, dose: 200.0 mg/kg/injection, schedule: Q01DX009 (ip), vehicle: saline 106 % of control | endpoint: median survival time, dose: 400.0 mg/kg/injection, schedule: Q01DX009 (ip), vehicle: saline 106 % of control | endpoint: median survival time, dose: 800.0 mg/kg/injection, schedule: Q01DX009 (ip), vehicle: saline 101 % of control

CCCCCCC(C)O[Si](C)c1ccc(OC)cc1 (stereo not drawn)
inactive: [1] 107 % of control | [8] 98 % of control | [2] 105 % of control | [9] 101 % of control | [7] 98 % of control | [10] 102 % of control

CCC[N+]1=C(/C=C/c2ccc3cccnc3c2O)C(C)(C)c2ccccc21
inactive: endpoint: mean survival time, dose: 100.0 mg/kg/injection, schedule: Q01DX001 (ip), vehicle: carboxymethylcellulose (CMC) 95 % of control | endpoint: mean survival time, dose: 200.0 mg/kg/injection, schedule: Q01DX001 (ip), vehicle: carboxymethylcellulose (CMC) 98 % of control | endpoint: mean survival time, dose: 400.0 mg/kg/injection, schedule: Q01DX001 (ip), vehicle: carboxymethylcellulose (CMC) 93 % of control

BrCCN1CCCCC1
inactive: endpoint: mean survival time, dose: 1.56 mg/kg/injection, schedule: Q01DX009 (ip), vehicle: saline 104 % of control and 115 % of control | endpoint: mean survival time, dose: 3.13 mg/kg/injection, schedule: Q01DX009 (ip), vehicle: saline 104 % of control and 112 % of control | endpoint: mean survival time, dose: 6.25 mg/kg/injection, schedule: Q01DX009 (ip), vehicle: saline 101 % of control and 102 % of control | endpoint: mean survival time, dose: 12.5 mg/kg/injection, schedule: Q01DX001 (ip), vehicle: saline 108 % of control | endpoint: mean survival time, dose: 12.5 mg/kg/injection, schedule: Q04DX002 (ip), vehicle: saline 98 % of control and 106 % of control | [3] 91 % of control | endpoint: mean survival time, dose: 25.0 mg/kg/injection, schedule: Q01DX001 (ip), vehicle: saline 105 % of control | endpoint: mean survival time, dose: 25.0 mg/kg/injection, schedule: Q04DX002 (ip), vehicle: saline 106 % of control | [4] 96 % of control | endpoint: mean survival time, dose: 50.0 mg/kg/injection, schedule: Q04DX002 (ip), vehicle: saline 104 % of control

CCC[CH2][Sn]([CH2]CCC)([O][Sn]([CH2]CCC)([CH2]CCC)[S]C#N)[S]C#N
inactive: endpoint: mean survival time, dose: 6.25 mg/kg/injection, schedule: Q01DX009 (ip), vehicle: Klucel (hydroxypropylcellulose) (HPC) 95 % of control | endpoint: mean survival time, dose: 12.5 mg/kg/injection, schedule: Q01DX009 (ip), vehicle: Klucel (hydroxypropylcellulose) (HPC) 97 % of control | endpoint: mean survival time, dose: 25.0 mg/kg/injection, schedule: Q01DX009 (ip), vehicle: Klucel (hydroxypropylcellulose) (HPC) 89 % of control

CCN(CC)c1ccc(N=Nc2cc(Cl)ccc2Cl)c(NC(=O)CCC(=O)O)c1
inactive: [8] 96 % of control | [9] 96 % of control | [10] 95 % of control
